“And” between values parts separate entries of the source, which are not always exact repeats. Identical values can stand only once. Toxic doses and inconclusive results are not listed. Rule for the calls: active = survival T/C of 150% or more; inactive = T/C below 125% in these data. Non-standard residues stand in square brackets, D forms with d. Residues, ends and D or L forms follow the SMILES beside them. *: point of attachment. NMeY = CN[CH](Cc1ccc(O)cc1)C(=O)O; Bn = c1ccc(C*)cc1
System: BDF1 mice, P388 leukemia ip, median survival T/C
Experiment: NCI In Vivo Anticancer Drug Screen. Data for tumor model P388 Leukemia (intraperitoneal) in B6D2F1 (BDF1) mice
Conditions: endpoint: median survival time, higher = longer survival
How it was run: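 Survival ratio, drug arm over vehicle arm, in mice with a transplanted tumour.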

[1] = dose: 25.0 mg/kg/injection, schedule: Q04DX003 (ip), vehicle: saline sonified
[2] = dose: 50.0 mg/kg/injection, schedule: Q04DX003 (ip), vehicle: saline sonified
[3] = dose: 25.0 mg/kg/injection, schedule: Q01DX009 (ip), vehicle: saline
[4] = dose: 50.0 mg/kg/injection, schedule: Q01DX009 (ip), vehicle: saline
[5] = dose: 50.0 mg/kg/injection, schedule: Q04DX003 (ip), vehicle: saline
[6] = dose: 100.0 mg/kg/injection, schedule: Q04DX003 (ip), vehicle: saline
[7] = dose: 100.0 mg/kg/injection, schedule: Q01DX009 (ip), vehicle: saline
[8] = dose: 200.0 mg/kg/injection, schedule: Q01DX009 (ip), vehicle: saline
[9] = dose: 200.0 mg/kg/injection, schedule: Q04DX003 (ip), vehicle: saline
[10] = dose: 400.0 mg/kg/injection, schedule: Q04DX003 (ip), vehicle: saline

Measured: T/C

O=C(Nc1ccc(Cl)cc1)O/N=C/c1ccccn1
inactive: dose: 100.0 mg/kg/injection, schedule: Q01DX001 (ip), vehicle: saline with Tween-80 95 % of control | dose: 200.0 mg/kg/injection, schedule: Q01DX001 (ip), vehicle: saline with Tween-80 104 % of control | dose: 400.0 mg/kg/injection, schedule: Q01DX001 (ip), vehicle: saline with Tween-80 90 % of control

CCOC(=O)CCC1(C(=O)OCC)Oc2ccc(Cl)cc2C1=O (stereo unspecified)
inactive: dose: 50.0 mg/kg/injection, schedule: Q01DX009 (ip), vehicle: saline with Tween-80 106 % of control | dose: 100.0 mg/kg/injection, schedule: Q01DX009 (ip), vehicle: saline with Tween-80 93 % of control | dose: 200.0 mg/kg/injection, schedule: Q01DX009 (ip), vehicle: saline with Tween-80 108 % of control

Oc1ccccc1C=Nc1ccccc1.Oc1ccccc1C=Nc1ccccc1.[Ni+2]
inactive: [1] 100 % of control | [2] 113 % of control

CC1(O)Cn2c(nc3nccnc32)S1 (stereo unspecified)
inactive: [3] 107 % of control | [4] 115 % of control | [5] 108 % of control | [6] 100 % of control

C[N+](C)(CC(=O)Nc1ccc(Cl)c(C(F)(F)F)c1)Cc1ccc(Cl)cc1
inactive: [1] 110 % of control | [2] 110 % of control | dose: 100.0 mg/kg/injection, schedule: Q04DX003 (ip), vehicle: saline sonified 90 % of control

Cc1cc(C)c(NC(=O)c2ccccc2Cl)c(C)c1
inactive: dose: 100.0 mg/kg/injection, schedule: Q04DX003 (ip), vehicle: saline with Tween-80 100 % of control | dose: 200.0 mg/kg/injection, schedule: Q04DX003 (ip), vehicle: saline with Tween-80 109 % of control | dose: 400.0 mg/kg/injection, schedule: Q04DX003 (ip), vehicle: saline with Tween-80 95 % of control

C[N+]1(C)C2CC(=O)CC1C1CC12 (stereo unspecified) (tested in a mixture with another compound)
inactive: [3] 99 % of control | [4] 106 % of control | [7] 106 % of control | [8] 106 % of control

O=C(COc1cc(Cl)c(Cl)cc1Cl)OCCOc1cc(Cl)c(Cl)cc1Cl
inactive: dose: 3.13 mg/kg/injection, schedule: Q01DX009 (ip), vehicle: saline with Tween-80 91 % of control | dose: 3.13 mg/kg/injection, schedule: Q04DX003 (ip), vehicle: saline with Tween-80 100 % of control | dose: 6.25 mg/kg/injection, schedule: Q04DX003 (ip), vehicle: saline with Tween-80 95 % of control | dose: 12.5 mg/kg/injection, schedule: Q04DX003 (ip), vehicle: saline with Tween-80 100 % of control

CC(=O)OCc1cc2cc(O)ccc2nc1C
inactive: [3] 98 % of control | [4] 107 % of control | [5] 111 % of control | [7] 101 % of control | [6] 110 % of control and 115 % of control | [8] 116 % of control | [9] 92 % of control and 110 % of control | dose: 400.0 mg/kg/injection, schedule: Q01DX009 (ip), vehicle: saline 91 % of control | [10] 97 % of control and 104 % of control and 116 % of control

CC1(C#N)CCC2c3ccccc3CCC2C1=O (stereo unspecified)
inactive: [6] 100 % of control | [9] 100 % of control | [10] 100 % of control

CCC(CCC(C)C1CCC2C3CC=C4CC(O)CCC4(C)C3CCC12C)C(C)C (stereo unspecified) (tested in a mixture with another compound)
inactive: dose: 12.5 mg/kg/injection, schedule: Q#A X020 (ip), vehicle: water 90 % of control

CNC(Cc1ccc(OCc2ccccc2)cc1)C(=O)NC(CC(C)C)C(=O)OC (stereo unspecified) (H-[NMeY](Bn)-Leu-OMe; configuration not given here)
inactive: [3] 106 % of control | [4] 99 % of control | [5] 108 % of control | [7] 92 % of control | [6] 111 % of control | [8] 106 % of control | [9] 106 % of control
